Where a name gives a salt, the structure may show the parent alone. Read-outs that look alike come from different tables or passages of the source.
Legend:
[1] = RP-HPLC retention on XTerra RP18, methanol/buffer; extrapolated retention factor log kw and slope S; format: physicochemical; conditions: for log kw: intercept, extrapolated to 100 % buffer, methanol/buffer, 25 °C; for S (slope): slope of log k vs methanol volume fraction
Protocol: All measurements were performed at 25°C with a constant flow rate of 0.8 mL min^-1 and UV detection in the range of 200-280 nm. The injection volume was 20 μL. […] The retention factor k was calculated for each mobile phase composition according to Equation (1):
where tr is the retention time of the tested compound and t0 is the dead volume measured with KNO3 as a non-retentive marker. The values corresponding to 100 % of the buffered eluent (log kw) were determined by extrapolation according to Equation (2):
where log kw is the intercept, S is the slope of the regression line, and φ is the volume fraction of the organic modifier in the mobile phase.
The retention behaviour in HPLC system was monitored by calculating extrapolated retention factors log kw corresponding to pure buffer as mobile phase.

[2] = Capillary electrophoresis, effective electrophoretic mobility (acetone as EOF marker); format: physicochemical; conditions: for µeff4.4 / µeff7.4 / µeff9.1: I = 25 mmol/L, 11 kV, 25 °C, three replicates; for µeff9.1 / μeff9.1 (effective electrophoretic mobility): pH 9.1
Protocol: All experiments were performed using the SpectraPhoresis 500-capillary electrophoresis system (Spectra Physics Analytical, USA) with UV detector. Data were recorded and analyzed using ChromQuest software version 4.0 (Thermo Finnigan, USA).
The separations were performed with an uncoated fused capillary (total length 31.5 cm, 50 μm id, effective length 24 cm, Polymicro Technologies, USA) applying a voltage of 11 kV and at 25 °C. The samples were injected hydrodynamically and detection was performed in the 200-280 nm range. The new capillary was rinsed stepwise with 0.1 M NaOH (15 min), water (10 min) and a running buffer (10 min). Finally, a 10 min high voltage was applied through the background electrolyte-filled capillary to equalize the inner surface, stabilize the electroosmotic flow and ensure good reproducibility of injections from run to run. […] Between runs, the capillary was rinsed with the background electrolyte for 1 minute.
where Lt is the total length of the capillary (cm), Leff is the effective length of the capillary (cm), U is the applied voltage (V), tm is the migration time of the analyte (s) and teof is the migration time of the electroneutral EOF marker acetone (s). The calculated μeff values (μeff4.4, μeff7.4 and μeff9.1) were used as dependent variables in QSMR analysis.

[3] = cited from earlier work
[4] = HPLC, ref 7 (Supplement reference list)
[5] = pH spectrophotometric, ref 13 (Supplement reference list)
[6] = pH-spectrophotometric, ref 14 (Supplement reference list)
[7] = pH titration, ref 4 (Supplement reference list)

Row | Compound | log kw ([1]; pH 4.4) | S (slope) ([1]; pH 4.4) | log kw ([1]; pH 7.4) | S (slope) ([1]; pH 7.4) | log kw ([1]; pH 9.1) | S (slope) ([1]; pH 9.1) | µeff4.4 ([2]; pH 4.4) | µeff7.4 ([2]; pH 7.4) | µeff9.1 [2] | also measured
1 | Cc1nccc2c1[nH]c1ccccc12 [Harman, harmane] | 1.72 ± 0.06 | -3.74 ± 0.18 | 2.76 ± 0.05 | -3.70 ± 0.09 | 2.78 ± 0.06 | -3.75 ± 0.11 | 28.192 ± 0.016 10^-5 cm^2 V^-1 s^-1 | 11.752 ± 0.034 10^-5 cm^2 V^-1 s^-1 | 0.000 ± 0.000 10^-5 cm^2 V^-1 s^-1 | μeff4.4 (effective electrophoretic mobility) ([2]; pH 4.4): 28.19 10^-5 cm^2 / V s; pKa experimental [3, 4]: 7.21
2 | COc1ccc2c(c1)[nH]c1c(C)nccc12 [Harmine, harmine hydrochloride] | 2.15 ± 0.04 | -4.28 ± 0.11 | 2.88 ± 0.05 | -3.85 ± 0.09 | 2.95 ± 0.07 | -3.97 ± 0.12 | 26.410 ± 0.068 10^-5 cm^2 V^-1 s^-1 | 13.636 ± 0.051 10^-5 cm^2 V^-1 s^-1 | 1.305 ± 0.124 10^-5 cm^2 V^-1 s^-1 | pKa experimental ([3]; spectrophotometric, ref 9 (Supplement reference list)): 7.45 (spectrophotometric) [9]
3 | c1ccc2c(c1)OCC(C1=NCCN1)O2 (stereo not shown) [Idazoxan, idazoxan hydrochloride] | 0.82 ± 0.01 | -2.66 ± 0.03 | 0.85 ± 0.02 | -1.58 ± 0.04 | 1.53 ± 0.01 | -2.80 ± 0.01 | 26.969 ± 0.032 10^-5 cm^2 V^-1 s^-1 | 23.293 ± 0.020 10^-5 cm^2 V^-1 s^-1 | 6.627 ± 0.102 10^-5 cm^2 V^-1 s^-1 | pKa experimental [3, 4]: 9.04
4 | CNCCCC12CCC(c3ccccc31)c1ccccc12 [Maprotiline, maprotiline hydrochloride] | 2.90 ± 0.08 | -4.31 ± 0.14 | 2.58 ± 0.12 | -3.18 ± 0.20 | 3.09 ± 0.08 | -4.20 ± 0.14 | 20.559 ± 0.034 10^-5 cm^2 V^-1 s^-1 | 18.696 ± 0.048 10^-5 cm^2 V^-1 s^-1 | 19.402 ± 0.148 10^-5 cm^2 V^-1 s^-1 | pKa experimental ([3]; potentiometric, ref 11 (Supplement reference list)): 10.45 ± 0.02
5 | CN1CCN2c3ccccc3Cc3ccccc3C2C1 (stereo not shown) [Mianserin, mianserin hydrochloride] | 2.48 ± 0.03 | -4.24 ± 0.07 | 3.91 ± 0.05 | -4.82 ± 0.08 | 3.92 ± 0.06 | -4.83 ± 0.11 | 22.471 ± 0.004 10^-5 cm^2 V^-1 s^-1 | 12.234 ± 0.109 10^-5 cm^2 V^-1 s^-1 | 0.000 ± 0.000 10^-5 cm^2 V^-1 s^-1 | pKa experimental ([3]; potentiometric, ref 12 (Supplement reference list)): 7.40
6 | COc1nc(C)nc(Cl)c1N=C1NCCN1 [Moxonidine, moxonidine hydrochloride] | 0.57 ± 0.03 | -3.21± 0.17 | 0.63 ± 0.03 | -2.36 ± 0.10 | 0.75 ± 0.04 | -2.31 ± 0.10 | 22.669 ± 0.104 10^-5 cm^2 V^-1 s^-1 | 10.907 ± 0.078 10^-5 cm^2 V^-1 s^-1 | 0.000 ± 0.000 10^-5 cm^2 V^-1 s^-1 | μeff9.1 (effective electrophoretic mobility) [2]: zero; pKa experimental [3, 4]: 7.84
7 | c1ccc2c(CC3=NCCN3)cccc2c1 [Naphazoline, naphazoline hydrochloride] | 1.52 ± 0.01 | -3.48 ± 0.04 | 1.52 ± 0.01 | -3.64 ± 0.05 | 1.76 ± 0.01 | -3.50 ± 0.03 | 25.941 ± 0.038 10^-5 cm^2 V^-1 s^-1 | 24.180 ± 0.135 10^-5 cm^2 V^-1 s^-1 | 24.643 ± 0.049 10^-5 cm^2 V^-1 s^-1 | pKa experimental [3, 5]: 10.81
8 | Cc1cc(C(C)(C)C)c(O)c(C)c1CC1=NCCN1 [Oxymetazoline, oxymetazoline hydrochloride] | 2.33 ± 0.02 | -3.89 ± 0.04 | 2.33 ± 0.04 | -3.61 ± 0.10 | 2.60 ± 0.07 | -4.14 ± 0.16 | 20.276 ± 0.040 10^-5 cm^2 V^-1 s^-1 | 19.061 ± 0.049 10^-5 cm^2 V^-1 s^-1 | 19.556 ± 0.076 10^-5 cm^2 V^-1 s^-1 | pKa experimental [3, 5]: 10.62
9 | CNC[C@H](O)c1cccc(O)c1 [Phenilephrine, Phenilephrine hydrochloride] | 0.09 ± 0.02 | -2.53 ± 0.14 | 0.04 ± 0.01 | -2.62 ± 0.06 | 0.39 ± 0.02 | -2.00 ± 0.06 | 25.780 ± 0.006 10^-5 cm^2 V^-1 s^-1 | 21.650 ±0.195 10^-5 cm^2 V^-1 s^-1 | 8.661 ± 0.036 10^-5 cm^2 V^-1 s^-1 | log kw ([1]; pH 4.4, listed as phenilephrine): 0.09; pKa experimental (first of two printed values) [3, 6]: 9.17; pKa experimental (second of two printed values) [3, 6]: 9.17 and 10.45 (pH-spectrophotometric) [14 ]
10 | c1ccc2c(c1)CCCC2C1=NCCN1 (stereo not shown) [Tetrahydrozoline, tetrahydrozoline hydrochloride] | 1.06 ± 0.02 | -2.94 ± 0.05 | 1.08 ± 0.01 | -3.24 ± 0.06 | 1.32 ± 0.03 | -2.99 ± 0.07 | 25.680 ± 0.049 10^-5 cm^2 V^-1 s^-1 | 24.299 ± 0.057 10^-5 cm^2 V^-1 s^-1 | 25.047 ± 0.066 10^-5 cm^2 V^-1 s^-1 | μeff9.1 (effective electrophoretic mobility) [2]: 25.05 10^-5 cm^2 / V s; pKa experimental [3, 7]: 10.51 ± 0.05
11 | c1cc2c(c(NC3=NCCN3)c1)CCCC2 [Tramazoline, Tramazoline hydrochloride] | 1.55 ± 0.03 | -3.43 ± 0.07 | 1.51 ± 0.01 | -3.51 ± 0.06 | 1.74 ± 0.01 | -3.37 ± 0.03 | 24.393 ± 0.067 10^-5 cm^2 V^-1 s^-1 | 22.988 ± 0.060 10^-5 cm^2 V^-1 s^-1 | 23.713 ± 0.031 10^-5 cm^2 V^-1 s^-1 | pKa experimental [3, 7]: 10.66 ± 0.05
12 | Nc1nc(N)c2nc(-c3ccccc3)c(N)nc2n1 [Triamterene, triamterene] | 1.75 ± 0.05 | -3.96 ± 0.14 | 1.92 ± 0.05 | -3.76 ± 0.12 | 1.93 ± 0.04 | -3.75 ± 0.11 | 22.146 ± 0.019 10^-5 cm^2 V^-1 s^-1 | 1.140 ± 0.053 10^-5 cm^2 V^-1 s^-1 | 0.000 ± 0.000 10^-5 cm^2 V^-1 s^-1 | μeff7.4 (effective electrophoretic mobility, text) ([2]; pH 7.4): 1.140±0.053 10^-5 cm^2 / V s; μeff9.1 (effective electrophoretic mobility) [2]: zero; pKa experimental ([3]; spectrophotometric, ref 15 (Supplement reference list)): 7.16

— paper PMC11542720, “Modelling of chromatographic and electrophoretic behaviour of imidazoline and alpha adrenergic receptors ligands under different acid-base conditions” (ADMET & DMPK, 2024)
